Data on nine compounds can be found in US9751867B2 (Syngenta Participations AG, priority 2014, dated 2017).

The subject of experiment [1] is NK Falkone corn seeds. Briefly: Corn seed germination under cold stress (15° C.). It counts as in vivo. As to conditions: for change in vivo at 50 µM: rate 50 μM; for change in vivo at 250 µM: rate 250 μM. As for the experimental part: The effect of compounds of Formula (I) on the germination of NK Falkone corn seeds under cold stress was evaluated as follows.
NK Falkone corn seeds were sorted by size using 2 sieves, one excluding very big seeds and the other with round holes of 8 to 9 mm diameter. The seeds retained by the latter sieve are used for the germination test.
The corn seeds were placed in 24 well plates (each plate is considered as one experimental unit or replicate). Germination is initiated by the addition of 250 μl of distilled water containing 0.5% DMSO per well as a mean for compound solubilization. 8 replicates (ie, 8 plates) were used for each treatment characterization. Plates were sealed using seal foil (Polyolefin Art. Nr. 900320) from HJ-BIOANALYTIK. All plates were placed horizontally on trolleys in a climatic chamber at 15° C. or 23° C. in complete darkness. The experiment is laid out in a completely randomized design in climatic chamber with 75% Relative Humidity. Foils are pierced, one hole per well using a syringe after 72 hours for experiments performed at 15° C. and after 24 hours for experiments performed at 23° C.
Germination is followed over time by taking photographs at different time points. Image analysis is done automatically with a macro developed using the Image J software. A dynamic analysis of germination is carried out by fitting a logistic curve to the relationship between % germination and time for each plate (T50 parameter).
T50 is the time needed for half the seed population to be germinated. A negative value of T50 represents a faster germination rate. The mean of T50 parameters is calculated for the 8 replicates and the kinetic parameter is determined for each germination curve. Data in bold indicate germination enhancing statistically significant differences between treated seeds and control (empty vehicle treated) T50 values (P<0.05) as outlined in Table 7.

Experiment [2] concerns Orobanche cumana Wallr. seeds. Description: Orobanche seed germination. Format: in vivo. As to conditions: preconditioned O. cumana seeds, 10 days at 20° C. in the dark, N = 5 × 100 seeds, control (0.01% DMSO) 0.75% germination. As for the experimental part: The effect of the compounds of Formula (I) on the germination of Orobanche cumana Wallr. seeds was evaluated on glass fibre filter paper (GFFP) in petri dishes. Seeds were pre-conditioned at moisture and suitable temperature to become responsive to the specific chemical germination stimulants.
Test compounds were dissolved in DMSO (10 000 mgl^−1) and stored at room temperature in a desiccator with desiccants. The stock solutions were dissolved with sterile deionised water to the appropriate final test concentration.
Seeds of O. cumana race ‘F’ were collected from sunflower fields in Manzanilla (Seville, Spain) in 2008 (seed lot IN153) and stored at room temperature. To separate seeds from heavy organic debris, a modified sucrose floatation technique as described by Hartman & Tanimonure (Plant Disease (1991), 75, 494) was applied. Seeds were filled into a separation funnel and stirred in water. When seeds floated to the surface, the water fraction containing heavy debris was discarded. Seeds were re-suspended in 2.5 M sucrose solution (specific gravity of 1.20) and heavy debris was allowed to settle down for 60 minutes. After removing debris, seeds were disinfected in 1% sodium hypochlorite solution and 0.025% (v/v) Tween 20 for 2 minutes. The seeds were decanted onto two layers of cheese cloth, rinsed with sterile deionised water and re-suspended in sterile deionised water. 2 mL of the seed suspension containing approximately 150 to 400 seeds was spread evenly on two layers of sterile glass fiber filter paper disc ([…]) in Petri dishes ( ? 9 cm). After wetting the discs with 3 mL sterile deionised water, petri dishes were sealed with parafilm. Seeds were incubated for 10 days at 20° C. in the dark for seed conditioning. The upper disc with conditioned seeds was briefly dried, transferred to a petri dish lined with a dry GFFP disc, and wetted with 6 mL of the appropriate test solution. The compounds of Formula (I) were tested at concentrations of 0.01, 0.1, and 1 mg/L. The strigolactone analogue GR24 (commercially available as a mixture of isomers) was included as positive control and 0.01% DMSO as negative control. All treatments were tested in five replicates. Seeds were re-incubated at 20° C. in the dark and examined for germination 10 days later.
The radicles of germinated seeds were stained for 5 minutes with blue ink (PELIKAN #4001, Germany) in 5% acetic acid according to Long et al (Seed Science Research (2008), 18, 125). After staining, seeds were photographed using a camera stand mounted with a digital SLR camera (Canon EOS 5D). Germination of 100 seeds per replicate was evaluated on digital images. Seeds were considered germinated when the radicle protruded from the seed coat.

[3] abbreviates: Zea mays, rate 2 μM, 15° C., negative value = faster germination, control 0.5% DMSO in water, read-out: T50 (% vs control).
Setting [4] is: Zea mays, rate 10 μM, 15° C., negative value = faster germination, control 0.5% DMSO in water, read-out: T50 (% vs control).
Setting [5] is: Zea mays, 15° C., negative value = faster germination, control 0.5% DMSO in water, read-out: T50 (% vs control).
Where [6] appears, read: Zea mays, rate 1 μM, 15° C., negative value = faster germination, control 0.5% DMSO in water, read-out: T50 (% vs control).
Where [7] appears, read: Zea mays, rate 5 μM, 15° C., negative value = faster germination, control 0.5% DMSO in water, read-out: T50 (% vs control).
The mark [8] stands for this setting: Zea mays, rate 25 μM, 15° C., negative value = faster germination, control 0.5% DMSO in water, read-out: T50 (% vs control).
[9] abbreviates: Zea mays, read-out: T50 (% vs control).

Each structure is given as a SMILES string. Read-outs that look alike come from different tables or passages of the source.

Regarding `CC1=C[C@H](O/C=C2/C(=O)O[C@@H]3c4ccccc4C[C@H]23)OC1=O` [GR-24, reference compound], the “T50 (% vs control)” value in experiment [1] (rate 0.08 μM, 15° C., negative value = faster germination, control 0.5% DMSO in water) is on record as 0.1 % vs control; in experiment [1] (rate 0.4 μM, 15° C., negative value = faster germination, control 0.5% DMSO in water) it was −2 % vs control; in experiment [1] (rate 2 μM, 15° C., negative value = faster germination, control 0.5% DMSO in water) it was −0.6 % vs control; in experiment [1] (rate 10 μM, 15° C., negative value = faster germination, control 0.5% DMSO in water) it was −2.4 % vs control.

In the case of `CC1=CC(O/C=C2/C(=O)N(C(=O)OC(C)(C)C)C3c4ccccc4CC23)N(CC(F)(F)F)C1=O` (centres unmarked) [Ia-7, tert-butyl (3E)-3-[(4-methyl-5-oxo-1-(2,2,2-trifluoroethyl)-2H-pyrrol-2-yl)oxymethylene]-2-oxo-4,8b-dihydro-3aH-indeno[1,2-b]pyrrole-1-carboxylate], the entries for the “Germination (%)” value in experiment [2] (0.01 mg/L) and in experiment [2] (0.1 mg/L) were 34% and 8%, respectively.

As for `CC1=CC(O/C=C2/C(=O)NC3c4ccccc4CC23)N(c2ccccc2)C1=O` (centres unmarked) [Ib-2, (3E)-3-[(4-methyl-5-oxo-1-phenyl-2H-pyrrol-2-yl)oxymethylene]-1,3a,4,8b-tetrahydroindeno[1,2-b]pyrrol-2-one], the change in vivo at 0.4 µM in experiment [1] (Zea mays, rate 0.4 μM, 15° C., negative value = faster germination, control 0.5% DMSO in water, read-out: T50 (% vs control)) is -0.4%. Besides, the change in vivo at 2 µM in experiment [1] (setting [3]) is -2.5%. For the same compound, the change in vivo at 10 µM in experiment [1] (setting [4]) was -6.1%. In addition, the change in vivo at 50 µM in experiment [1] (setting [5]) is -6.2%.

In the case of `CON1C(=O)C(C)=CC1O/C=C1/C(=O)NC2c3ccccc3CC12` (centres unmarked) [Ib-3, (3E)-3-[(4-methyl-5-oxo-1-methoxy-2H-pyrrol-2-yl)oxymethylene]-1,3a,4,8b-tetrahydroindeno[1,2-b]pyrrol-2-one], the change in vivo at 2 µM in experiment [1] (setting [3]) was -4%. Besides, in experiment [1] (setting [4]), the change in vivo at 10 µM worked out at 3.4%. In addition, in experiment [1] (setting [5]), the change in vivo at 50 µM was -3.8% and the change in vivo at 250 µM was -5.5%.

Consider `CC1=CC(O/C=C2/C(=O)NC3c4ccccc4CC23)N(C2CC2)C1=O` (centres unmarked) [Ib-5, (3E)-3-[(4-methyl-5-oxo-1-cyclopropyl-2H-pyrrol-2-yl)oxymethylene]-1,3a,4,8b-tetrahydroindeno[1,2-b]pyrrol-2-one], for which the “Germination (%)” value in experiment [2] (0.01 mg/L) worked out at 68%. For the same compound, the “Germination (%)” value in experiment [2] (0.1 mg/L) was 73%. Also, the change in vivo at 2 µM in experiment [1] (setting [3]) was -0.8%. In addition, the change in vivo at 10 µM in experiment [1] (setting [4]) is -4.3%. Moreover, in experiment [1] (setting [5]), the change in vivo at 50 µM is -3.9% and the change in vivo at 250 µM is -5.8%.

As for `CC1=CC(O/C=C2/C(=O)NC3c4ccccc4CC23)N(CC(F)(F)F)C1=O` (centres unmarked) [Ib-7, (3E)-3-[(4-methyl-5-oxo-1-(2,2,2-trifluoroethyl)-2H-pyrrol-2-yl)oxymethylene]-1,3a,4,8b-tetrahydroindeno[1,2-b]pyrrol-2-one], the “Germination (%)” value in experiment [2] (0.01 mg/L) is recorded as 46%; in experiment [2] (0.1 mg/L) it was 26%. Moreover, the change in vivo at 2 µM in experiment [1] (setting [3]) is 1.5%. The change in vivo at 10 µM in experiment [1] (setting [4]) was -3%. Further, the change in vivo at 50 µM in experiment [1] (setting [5]) was -3.3%. Besides, the change in vivo at 250 µM in experiment [1] (setting [5]) was -4.5%.

Regarding `CC1=CC(O/C=C2/C(=O)NC3c4ccccc4CC23)N(c2ccc(F)cc2)C1=O` (centres unmarked) [Ib-8, (3E)-3-[(4-methyl-5-oxo-1-(4-fluoro-phenyl)-2H-pyrrol-2-yl)oxymethylene]-1,3a,4,8b-tetrahydroindeno[1,2-b]pyrrol-2-one], in experiment [1] (setting [6]), the change in vivo at 1 µM is -2.6%. Further, in experiment [1] (setting [7]), the change in vivo at 5 µM was -2.8%. Moreover, the change in vivo at 25 µM in experiment [1] (setting [8]) was determined as 2%. Moreover, in experiment [1] (Zea mays, rate 125 μM, 15° C., negative value = faster germination, control 0.5% DMSO in water, read-out: T50 (% vs control)), the change in vivo at 125 µM was -2.3%.

As for `CC1=CC(O/C=C2/C(=O)NC3c4ccccc4CC23)N(c2cccc(F)c2)C1=O` (centres unmarked) [Ib-9, (3E)-3-[(4-methyl-5-oxo-1-(3-fluoro-phenyl)-2H-pyrrol-2-yl)oxymethylene]-1,3a,4,8b-tetrahydroindeno[1,2-b]pyrrol-2-one], the change in vivo at 0.2 µM in experiment [1] (Zea mays, rate 0.2 μM, 15° C., negative value = faster germination, control 0.5% DMSO in water, read-out: T50 (% vs control)) was -0.8%. The change in vivo at 1 µM in experiment [1] (setting [6]) is -4.8%. Further, the change in vivo at 5 µM in experiment [1] (setting [7]) was -5.6%. Also, the change in vivo at 25 µM in experiment [1] (setting [8]) is -5.2%.

With `CC1=CC(O/C=C2/C(=O)NC3c4ccccc4CC23)N(c2cc(C(F)(F)F)cc(C(F)(F)F)c2)C1=O` (centres unmarked) [Ib-13, (3E)-3-[(4-methyl-5-oxo-1-(3,5-bistrifluoromethyl-phenyl)-2H-pyrrol-2-yl)oxymethylene]-1,3a,4,8b-tetrahydroindeno[1,2-b]pyrrol-2-one], in experiment [1] (setting [9]), the change in vivo at 0.2 µM came out at 1%, the change in vivo at 1 µM is -3.6%, the change in vivo at 5 µM is -3.6% and the change in vivo at 25 µM was -2.7%.
